Measurements as given in ChEMBL document CHEMBL1201862, “PubChem BioAssay data set” (2004).
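Briefly, cells in 96-well plates were exposed to five compound concentrations for 48 h, and endpoints were estimated by linear interpolation. GI50 marks 50% less growth.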 Calls of active or inactive are those of the source. Rule as the data show it: active = GI50 up to about 1.1 µM and inactive = higher.

What was measured:
Experiment in all cases: growth of human tumour cells (NCI), 48 h
CCRF-CEM = tested on: CCRF-CEM
OVCAR-8 = tested on: OVCAR-8
M14 = tested on: M14
K562 = tested on: K562
HOP-62 = tested on: HOP-62
SN12C = tested on: SN12C
SK-MEL-2 = tested on: SK-MEL-2
HCT-116 = tested on: HCT-116
SW-620 = tested on: SW-620
A498 = tested on: A498
HT-29 = tested on: HT-29
HCT-15 = tested on: HCT-15
LOX IMVI = tested on: LOX IMVI
UACC-257 = tested on: UACC-257
OVCAR-3 = tested on: OVCAR-3
HOP-92 = tested on: HOP-92

SMILES	GI50 (CCRF-CEM)	GI50 (OVCAR-8)	GI50 (M14)	GI50 (K562)	GI50 (HOP-62)	GI50 (SN12C)	GI50 (SK-MEL-2)	GI50 (HCT-116)	GI50 (SW-620)	GI50 (A498)	GI50 (HT-29)	GI50 (HCT-15) [µM]	GI50 (LOX IMVI)	GI50 (UACC-257)	GI50 (OVCAR-3)	GI50 (HOP-92)
CC(=O)O[C@]1(C)OC(=O)[C@@H](CC(C)C)N1[N+](=O)[O-]	> 100 µM (inactive)	> 100 µM (inactive)	> 100 µM (inactive)	> 100 µM (inactive)	> 100 µM (inactive)	> 100 µM (inactive)	> 100 µM (inactive)	> 100 µM (inactive)	> 100 µM (inactive)	> 100 µM (inactive)	> 100 µM (inactive)	> 100	> 100 µM (inactive)	> 100 µM (inactive)	> 100 µM (inactive)	–
O=c1nc2sc3ccc4ccccc4c3n2nc1-c1ccccc1	> 100 µM (inactive)	18.9 µM (inactive)	44.4 µM (inactive)	> 100 µM (inactive)	26.7 µM (inactive)	27.2 µM (inactive)	> 100 µM (inactive)	21.7 µM (inactive)	32.5 µM (inactive)	–	94.8 µM (inactive)	45.1	15.1 µM (inactive)	99.3 µM (inactive)	19 µM (inactive)	21.4 µM (inactive)
CCOC(=O)NC(=O)c1cn(CCN2CCN(C(=O)CCCCCCCCCCNc3ncnc4[nH]cnc34)CC2)c(=O)[nH]c1=O	> 100 µM (inactive)	> 100 µM (inactive)	> 100 µM (inactive)	58.7 µM (inactive)	> 100 µM (inactive)	> 100 µM (inactive)	> 100 µM (inactive)	40.1 µM (inactive)	> 100 µM (inactive)	–	> 100 µM (inactive)	> 100	> 100 µM (inactive)	> 100 µM (inactive)	> 100 µM (inactive)	> 100 µM (inactive)
COC(=O)C1=C(C(=O)OC)C2C=CC1C1C(Cl)=C(Cl)C21 (stereo unspecified)	> 100 µM (inactive)	> 100 µM (inactive)	> 100 µM (inactive)	> 100 µM (inactive)	> 100 µM (inactive)	> 100 µM (inactive)	> 100 µM (inactive)	–	> 100 µM (inactive)	–	> 100 µM (inactive)	> 100	> 100 µM (inactive)	> 100 µM (inactive)	> 100 µM (inactive)	40.1 µM (inactive)
CC(=O)Nc1ccc(-c2nnc(SCC(=O)Nc3ccccc3[N+](=O)[O-])o2)cc1	> 100 µM (inactive)	> 100 µM (inactive)	> 100 µM (inactive)	93.1 µM (inactive)	> 100 µM (inactive)	> 100 µM (inactive)	> 100 µM (inactive)	> 100 µM (inactive)	> 100 µM (inactive)	–	> 100 µM (inactive)	> 100	> 100 µM (inactive)	> 100 µM (inactive)	34.4 µM (inactive)	> 100 µM (inactive)
C1CCOC2(CCC3(CC2)OCCCCO3)OC1	> 100 µM (inactive)	> 100 µM (inactive)	> 100 µM (inactive)	> 100 µM (inactive)	> 100 µM (inactive)	> 100 µM (inactive)	> 100 µM (inactive)	> 100 µM (inactive)	> 100 µM (inactive)	> 100 µM (inactive)	–	> 100	–	> 100 µM (inactive)	–	–
COc1ccc(C2Cc3cc(OC)c(OC)c(OC)c3C2)cc1 (stereo unspecified)	32.6 µM (inactive)	48.5 µM (inactive)	35.6 µM (inactive)	20.2 µM (inactive)	97.5 µM (inactive)	52.2 µM (inactive)	30.6 µM (inactive)	41 µM (inactive)	29.4 µM (inactive)	28.6 µM (inactive)	28.1 µM (inactive)	38.6	56.8 µM (inactive)	23.2 µM (inactive)	38.8 µM (inactive)	–
